{"source": "patent US20220177484A1", "about": "“MACROCYCLES WITH ANTIOXIDANT AND NEUROPROTECTIVE ACTIVITIES” (INSTITUTO BIOMAR, S.A, priority 2019, published 2022)", "format_in_all_cases": "cell-based", "key": {"[1]": {"system": "cortical primary neurons (from C57BL6/J mice)", "assay": "H2O2 production in neurons after excitotoxic NMDA stimulus (Amplex Red)", "settings": "100 μM NMDA 10 min, then compound 0.1, 1, 5 μM (FIG. 5)", "description": "(§1) For NMDA receptors activation, neurons at 8 days in vitro were incubated with 100 μM NMDA for 10 minutes. Neurons were then washed and further incubated for 4 hours in culture medium with DMSO only (DMSO empty bar), DMSO and NMDA (DMSO filled bar) and with increasing quantities of GKK1032C, GKK1032, Pyrrocidine A, Pyrrocidine B, CL0661, CL0667 and CL0670. Concentrations of 0.1 μM, 1 μM, 5 μM. *: p-value <0.05 vs. DMSO+NMDA (student's test).\n(§2) Experiments were performed in […] cortical primary neurons, obtained as was previously described (Herrero-Mendez A. et al., Nat. Cell. Biol. 11:747-752, 2009). After 7 or 8 days in B27-MAO culture, neurons (from C57BL6/J mice) were incubated in the presence of N-methyl-D-aspartate (NMDA, a H2O2 production promoter; 100 μM) for 10 minutes, followed by a PBS washing step and submitted to a 24-hour B27 incubation step in the absence (DMSO) or presence of increasing amounts of GKK1032C, GKK1032, Pyrrocidine B, Pyrrocidine A, CL0661, CL0665, CL0667 and CL0670 (0.1 μM, 1 μM and 5 μM). B27-MAO stands for Neurobasal medium, supplemented with B27 supplement in the absence of antioxidants (minus antioxidants, MAO).\nThe release of H2O2 was measured using the fluorescent method Amplex© Red hydrogen peroxide/peroxidase assay kit (Invitrogen, catalog number A22188) using a multiwell fluorescence reader (Varioskan, Thermo Scientific).\n(§3) The data are presented as the mean values±standard deviation of the mean from n=3."}, "[2]": {"system": "cortical primary neurons (from C57BL6/J mice)", "assay": "Caspase-3 activity (neuronal apoptosis) after excitotoxic NMDA stimulus", "settings": "100 μM NMDA 10 min, then 24 h with compound 0.1, 1, 5 μM (FIG. 6)", "description": "as §1, with “24” for “4”, “Pyrrocidine” for “Pyrrocidine A, Pyrrocidine”, “CL0661, CL0665,” for “CL0661,”, “pvalue” for “p-value”\nas §2\nNeuronal apoptosis was determined by measuring caspase-3 activity (Veas-Perez de Tudela et al. Sci Rep 5:18180; doi:10.1038/srep18180 (2015).\nas §3"}, "[3]": {"system": "rat cortical primary neurons", "assay": "H2O2 formation in cortical primary neurons treated with L-BSO and rotenone (Amplex Red)", "settings": "compound 1 μg/ml together with L-BSO and rotenone for 6 h, washed, recorded 2 h (FIG. 2)", "description": "The data are presented as the mean values±[…] of the mean (SEM) from n=6 (i.e., 6 independent wells measured independently).\nAfter this period, cells were again washed and determined the rate of H2O2 production during the next 2 h."}}}
{"smiles": "C=CC1(C)C=C(C)C2C3C(Oc4ccc(cc4)CC45OC4(C(=O)NC5=O)C(=O)C31)C1C(C)CC(C)CC21C", "note": "(stereo not drawn) [CL0661]", "values": [{"measurement": "H2O2 production in neuron cells after NMDA", "setting": "[1]", "value": "successful in preventing H2O2 from being produced"}, {"measurement": "neuronal apoptosis (caspase-3 activity) after NMDA", "setting": "[2]", "value": "effective in protecting neuron cells against apoptosis"}]}
{"smiles": "C=C[C@@H]1C=C(C)[C@H]2[C@@H]3[C@H](Oc4ccc(cc4)C[C@@]4(O)C=C(C(=O)N4)C(=O)[C@@H]13)[C@@H]1[C@@H](C)C[C@@H](C)C[C@]12C", "note": "[Pyrrocidine A, reference compound]", "values": [{"measurement": "H2O2 production in neuron cells after NMDA", "setting": "[1]", "value": "successful in preventing H2O2 from being produced"}, {"measurement": "rate of H2O2 formation", "setting": "[3]", "value": "significantly impaired"}]}
{"smiles": "C=C[C@@]1(C)C=C(C)C2C3[C@H](Oc4ccc(cc4)CC4C(=O)NC(=O)[C@H]4C(=O)[C@H]31)C1[C@@H](C)C[C@@H](C)C[C@@]21C", "note": "(stereo partly drawn) [GKK1032, reference compound]", "values": [{"measurement": "H2O2 production in neuron cells after NMDA", "setting": "[1]", "value": "successful in preventing H2O2 from being produced"}, {"measurement": "neuronal apoptosis (caspase-3 activity) after NMDA", "setting": "[2]", "value": "effective in protecting neuron cells against apoptosis"}, {"measurement": "rate of H2O2 formation", "setting": "[3]", "value": "significantly impaired"}]}
{"smiles": "C=CC1(C)C=C(C)C2C3C(Oc4ccc(cc4)CC4C(=O)N(CC#N)C(=O)C4C(=O)C31)C1C(C)CC(C)CC21C", "note": "(stereo not drawn) [CL0667]", "values": [{"measurement": "H2O2 production in neuron cells after NMDA", "setting": "[1]", "value": "successful in preventing H2O2 from being produced"}, {"measurement": "neuronal apoptosis (caspase-3 activity) after NMDA", "setting": "[2]", "value": "effective in protecting neuron cells against apoptosis"}]}
{"smiles": "C=C[C@@H]1C=C(C)[C@H]2[C@@H]3[C@H](Oc4ccc(cc4)C[C@@]4(O)C[C@H](C(=O)N4)C(=O)[C@@H]13)[C@@H]1[C@@H](C)C[C@@H](C)C[C@]12C", "note": "[Pyrrocidine B, reference compound]", "values": [{"measurement": "H2O2 production in neuron cells after NMDA", "setting": "[1]", "value": "successful in preventing H2O2 from being produced"}, {"measurement": "neuronal apoptosis (caspase-3 activity) after NMDA", "setting": "[2]", "value": "effective in protecting neuron cells against apoptosis"}]}
{"smiles": "CC1=CC2(C)C(C)O/C3=C4\\C(=O)NC(=O)C4Cc4ccc(cc4)OC4C(C32)C1C1(C)CC(C)CC(C)C41", "note": "(stereo not drawn) [CL0665]", "values": [{"measurement": "neuronal apoptosis (caspase-3 activity) after NMDA", "setting": "[2]", "value": "effective in protecting neuron cells against apoptosis"}]}
